From patent US6613772B1, “Substituted 2-aryl-4-amino-chinazolines, method for the production and use thereof as medicaments” (Aventis Pharma Deutschland GmbH, priority 1997, dated 2003) come the findings set out here.

Each structure is given as a SMILES string.

Series [1] addresses T1, soluble guanylate cyclase (sGC) (Bos taurus, UniProt P16068+P19687).
T1 construct: The sGC employed had been isolated from bovine lung; from tissue; host or cells: bovine lung
T1 sequence (P19687 1-691): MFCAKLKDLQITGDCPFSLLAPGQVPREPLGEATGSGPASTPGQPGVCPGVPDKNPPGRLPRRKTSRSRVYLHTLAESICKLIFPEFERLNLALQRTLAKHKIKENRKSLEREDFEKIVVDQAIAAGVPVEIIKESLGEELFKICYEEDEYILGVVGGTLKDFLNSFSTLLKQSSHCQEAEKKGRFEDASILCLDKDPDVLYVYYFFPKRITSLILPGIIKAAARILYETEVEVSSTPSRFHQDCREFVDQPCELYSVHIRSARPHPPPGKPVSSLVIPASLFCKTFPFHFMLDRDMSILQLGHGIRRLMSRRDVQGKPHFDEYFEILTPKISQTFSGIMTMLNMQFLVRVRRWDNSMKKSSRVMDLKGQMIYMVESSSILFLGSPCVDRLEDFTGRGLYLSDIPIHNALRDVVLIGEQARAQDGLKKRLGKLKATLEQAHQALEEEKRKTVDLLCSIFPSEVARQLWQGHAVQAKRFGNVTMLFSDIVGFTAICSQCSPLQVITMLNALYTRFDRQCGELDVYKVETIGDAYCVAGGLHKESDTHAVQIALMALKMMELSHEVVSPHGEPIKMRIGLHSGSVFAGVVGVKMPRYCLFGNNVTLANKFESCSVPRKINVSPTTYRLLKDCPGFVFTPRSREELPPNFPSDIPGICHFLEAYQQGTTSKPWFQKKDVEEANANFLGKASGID
T1 sequence (P16068 1-619): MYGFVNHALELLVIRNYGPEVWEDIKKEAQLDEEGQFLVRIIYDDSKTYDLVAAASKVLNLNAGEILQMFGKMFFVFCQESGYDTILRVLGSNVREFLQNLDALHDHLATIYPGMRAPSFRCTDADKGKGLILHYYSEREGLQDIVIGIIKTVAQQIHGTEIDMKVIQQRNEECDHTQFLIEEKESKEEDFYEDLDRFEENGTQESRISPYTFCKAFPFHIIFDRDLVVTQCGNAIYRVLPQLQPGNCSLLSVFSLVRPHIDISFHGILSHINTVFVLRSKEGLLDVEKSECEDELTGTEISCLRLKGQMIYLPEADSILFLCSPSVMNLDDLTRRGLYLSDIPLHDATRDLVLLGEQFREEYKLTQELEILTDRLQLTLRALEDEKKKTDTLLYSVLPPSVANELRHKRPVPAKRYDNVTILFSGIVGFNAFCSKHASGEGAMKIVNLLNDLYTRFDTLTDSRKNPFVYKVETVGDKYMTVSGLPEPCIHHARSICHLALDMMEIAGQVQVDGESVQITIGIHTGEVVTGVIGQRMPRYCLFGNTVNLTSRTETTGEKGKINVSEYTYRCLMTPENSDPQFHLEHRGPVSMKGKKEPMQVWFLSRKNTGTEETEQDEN
Put plainly: Activation of the soluble guanylate cyclase (cGMP enzyme immunoassay). The series is classed as biochemical. The settings on record: test substance 50 μM; sGC isolated from bovine lung; [cGMP] test substance/[cGMP] control (basal activity, solvent); 37° C., 15 to 20 minutes. The procedure: Activation of the Soluble Guanylate Cyclase
The activation of the soluble guanylate cyclase (sGC), which catalyzes the conversion of guanosine triphosphate (GTP) into cyclic guanosine monophosphate (cGMP) and pyrophosphate, by the compounds according to the invention was quantified with the aid of an enzyme immunoassay (EIA) from Amersham. For this, the test substances were first incubated with sGC in microtiter plates and then the amount of resulting cGMP was determined. The sGC employed had been isolated from bovine lung (see Methods in Enzymology, Volume 195, p. 377). The test solutions (100 μl per well) contained 50 mM triethanolamine (TEA) buffer (pH 7.5), 3 mM MgCl2, 3 mM reduced glutathione (GSH), 0.1 mM GTP, 1 mM 3-isobutyl-1-methylxanthine (IBMX), suitably diluted enzyme solution and the test substance or, in the case of the control experiments, solvent. The test substances were dissolved in dimethyl sulfoxide (DMSO) and the solution was diluted with DMSO/water such that the final concentration of test substance in the test solution was 50 μM. The DMSO concentration in the test solution was 5% (v/v). The reaction was started by addition of the sGC. The reaction mix was incubated at 37° C. for 15 to 20 minutes and then stopped by ice-cooling and addition of the stop reagent (50 mM EDTA, pH 8.0). An aliquot of 50 μl was taken and employed for the determination of the cGMP content using the acetylation protocol of the Amersham cGMP EIA kit. The absorption of the samples was measured at 450 nm (reference wavelength 620 nm) in a microtiter plate reader. The cGMP concentration was determined by means of a calibration curve which was obtained under the same experimental conditions. The activation of the sGC by a test substance is indicated as n-fold stimulation of the basal enzyme activity which was found in the control experiments (with solvent instead of test substance calculated according to the formula
n-fold stimulation=[cGMP]test substance/[cGMP]control).

As usually defined, the melting point is the temperature of the solid-liquid transition. In turn, `COc1cc2nc(-c3ccc(Cl)cc3)nc(NCC(N)=O)c2cc1OC` [Example 25, 2-(4-Chlorophenyl)-4-((aminocarbonylmethyl)amino)-6,7-dimethoxyquinazoline] gave a melting point of 291 °C. For the same molecule, in series [1], the “n-fold Stimulation” value is 3 n-fold.

Turning to `COc1cc2c(NCCCN3CCOCC3)nc(-c3ccc(Cl)cc3)nc2c(OC)c1OC.Cl` [Example 14, 2-(4-Chlorophenyl)-4-(3-morpholinopropylamino)-6,7,8-trimethoxyquinazoline Hydrochloride], the melting point is 190 °C. The “n-fold Stimulation” value in series [1] was 3 n-fold.

For `COc1cc2nc(-c3ccc(Cl)cc3)nc(NCCOCCO)c2cc1OC` [Example 33, 2-(4-Chlorophenyl)-4-(2-(2-hydroxyethoxy)ethylamino)-6,7-dimethoxyquinazoline], the melting point was found to be 188 °C. Moreover, the “n-fold Stimulation” value in series [1] came to 3 n-fold.

For `COc1cc2nc(-c3ccc(C)cc3)nc(N[C@H]3CC[C@H](O)CC3)c2cc1OC` [Example 96, 2-(4-Methylphenyl)-4-(trans-4-hydroxycyclohexylamino)-6,7-dimethoxyquinazoline], the melting point came out at 243 °C. For the same molecule, the “n-fold Stimulation” value in series [1] turned out to be 16 n-fold.

Take `COc1cc2c(N[C@H]3CC[C@H](O)CC3)nc(-c3ccc(Cl)cc3)nc2c(OC)c1OC` [Example 94, 2-(4-Chlorophenyl)-4-(trans-4-hydroxycyclohexylamino)-6,7,8-trimethoxyquinazoline]: the melting point stood at 199 °C. The “n-fold Stimulation” value in series [1] is 13 n-fold.

For `COc1cc2nc(-c3ccc(C)cc3)nc(NCCO)c2cc1OC` [Example 37, 2-(4-Methylphenyl)-4-(2-hydroxyethylamino)-6,7-dimethoxyquinazoline], the melting point came out at 217 °C. Also, the “n-fold Stimulation” value in series [1] amounted to 4 n-fold.

Take `COc1cc2nc(-c3ccc(C)cc3)nc(NC3CCCC3)c2cc1OC` [Example 98, 2-(4-Methylphenyl)-4-cyclopentylamino-6,7-dimethoxyquinazoline]: the melting point came to 101 °C. Further, in series [1], the “n-fold Stimulation” value came out at 8 n-fold.

`COc1cc2c(N3CCN(CC(=O)N4CCOCC4)CC3)nc(-c3ccc(Cl)cc3)nc2c(OC)c1OC` [Example 12, 2-(4-Chlorophenyl)-4-(4-(morpholinocarbonylmethyl)piperazino)-6,7,8-trimethoxyquinazoline] gave a melting point of 177 °C. Moreover, the “n-fold Stimulation” value in series [1] came out at 6 n-fold.

In the case of `COc1cc2nc(-c3ccc(C)cc3)nc(NCc3cccnc3)c2cc1OC` [Example 38, 2-(4-Methylphenyl)-4-((3-pyridylmethyl)amino)-6,7-dimethoxyquinazoline], the melting point was found to be 239 °C. The “n-fold Stimulation” value in series [1] is on record as 7 n-fold.

Regarding `COc1cc2nc(-c3ccc(Cl)cc3)nc(N(C)C)c2cc1OC` [Example 35, 2-(4-Chlorophenyl)-4-dimethylamino-6,7-dimethoxyquinazoline], the melting point turned out to be 148 °C. In series [1], the “n-fold Stimulation” value is reported as 5 n-fold.

`COc1cc2nc(-c3ccc(Cl)cc3)nc(NCCO)c2cc1OC` [Example 20, 2-(4-Chlorophenyl)-4-(2-hydroxyethylamino)-6,7-dimethoxyquinazoline] registered a melting point of 236 °C. The “n-fold Stimulation” value in series [1] was 5 n-fold.

With `COc1cc2nc(-c3ccc(C)cc3)nc(N3CCN(c4ccccn4)CC3)c2cc1OC` [Example 79, 2-(4-Methylphenyl)-4-(4-(2-pyridyl)piperazino)-6,7-dimethoxyquinazoline], the melting point was determined as 191 °C. Also, the “n-fold Stimulation” value in series [1] was 6 n-fold.

`COc1cc2nc(-c3ccc(Cl)cc3)nc(NC3CCCC3)c2cc1OC` [Example 92, 2-(4-Chlorophenyl)-4-cyclopentylamino-6,7-dimethoxyquinazoline] gave a melting point of 231 °C. Besides, the “n-fold Stimulation” value in series [1] was determined as 6 n-fold.

On to `COc1cc2nc(-c3ccc(Cl)cc3)nc(N3CCN(CC(=O)NC(C)C)CC3)c2cc1OC` [Example 24, 2-(4-Chlorophenyl)-4-(4-(isopropylaminocarbonylmethyl)piperazino)-6,7-dimethoxyquinazoline], for which the melting point was determined as 187 °C. For the same molecule, in series [1], the “n-fold Stimulation” value stood at 3 n-fold.

`COc1cc2c(N3CCC(C(N)=O)CC3)nc(-c3ccc(Cl)cc3)nc2c(OC)c1OC` [Example 67, 2-(4-Chlorophenyl)-4-(4-aminocarbonylpiperidino)-6,7,8-trimethoxyquinazoline]: the melting point is 215 °C. In addition, the “n-fold Stimulation” value in series [1] is given as 7 n-fold.

The molecule `COc1cc2nc(-c3ccc(Cl)cc3)nc(NCCCO)c2cc1OC` [Example 32, 2-(4-Chlorophenyl)-4-(3-hydroxypropylamino)-6,7-dimethoxyquinazoline] came in with a melting point of 187 °C. Besides, in series [1], the “n-fold Stimulation” value came out at 5 n-fold.
